Measured values published in ChEMBL document CHEMBL1201862, “PubChem BioAssay data set” (2004).
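Dose response: 5 concentrations. Exposure: 48 h. Format: 96-well plates. Endpoint: linear interpolation; highest concentration if not reached. GI50 marks 50% less growth.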 Calls of active or inactive are those of the source. Cut-off read from the data, not from the text of the source: active = GI50 up to about 1.1 µM and inactive = higher.

Legend:
Test in all cases: NCI tumour cell line growth inhibition, 48 h
KM12 = test system: KM12
M14 = test system: M14
UACC-257 = test system: UACC-257
TK-10 = test system: TK-10
PC-3 = test system: PC-3
OVCAR-4 = test system: OVCAR-4
HL-60 = test system: HL-60
NCI/ADR-RES = test system: NCI/ADR-RES
HOP-92 = test system: HOP-92
UACC-62 = test system: UACC-62
UO-31 = test system: UO-31
HT-29 = test system: HT-29
HCT-116 = test system: HCT-116
MDA-N = test system: MDA-N
SK-MEL-2 = test system: SK-MEL-2
SN12C = test system: SN12C
RXF 393 = test system: RXF 393
NCI-H23 = test system: NCI-H23
SF-268 = test system: SF-268
EKVX = test system: EKVX
DU-145 = test system: DU-145
HCC 2998 = test system: HCC 2998
MCF7 = test system: MCF7
CAKI-1 = test system: CAKI-1
NCI-H460 = test system: NCI-H460
A549 = test system: A549
ACHN = test system: ACHN
CCRF-CEM = test system: CCRF-CEM
MDA-MB-231 = test system: MDA-MB-231
SNB-19 = test system: SNB-19
NCI-H522 = test system: NCI-H522
SW-620 = test system: SW-620
MDA-MB-435 = test system: MDA-MB-435
SNB-75 = test system: SNB-75
OVCAR-5 = test system: OVCAR-5
IGROV-1 = test system: IGROV-1
HOP-62 = test system: HOP-62
U-251 = test system: U-251
Malme-3M = test system: Malme-3M
OVCAR-3 = test system: OVCAR-3
LOX IMVI = test system: LOX IMVI
BT-549 = test system: BT-549
HCT-15 = test system: HCT-15
SF-295 = test system: SF-295
T47D = test system: T47D
Hs-578T = test system: Hs-578T
786-0 = test system: 786-0
OVCAR-8 = test system: OVCAR-8
SK-OV-3 = test system: SK-OV-3
A498 = test system: A498
SR = test system: SR
NCI-H226 = test system: NCI-H226
SF-539 = test system: SF-539
SK-MEL-5 = test system: SK-MEL-5
SK-MEL-28 = test system: SK-MEL-28
COLO 205 = test system: COLO 205
MOLT-4 = test system: MOLT-4
K562 = test system: K562

CN1C(=O)CN=C(c2ccccc2F)c2cc(N=C=S)ccc21
GI50 (KM12): 44.6 µM (inactive) | GI50 (M14): 52.1 µM (inactive) | GI50 (UACC-257): 43.5 µM (inactive) | GI50 (TK-10): 37.4 µM (inactive) | GI50 (PC-3): 45.9 µM (inactive) | GI50 (OVCAR-4): 35.4 µM (inactive) | GI50 (HL-60): 34.2 µM (inactive) | GI50 (NCI/ADR-RES): 43.1 µM (inactive) | GI50 (HOP-92): 23.7 µM (inactive) | GI50 (UACC-62): 25.1 µM (inactive) | GI50 (UO-31): 17.1 µM (inactive) | GI50 (HT-29): 34.2 µM (inactive) | GI50 (HCT-116): 44.3 µM (inactive) | GI50 (MDA-N): 54.3 µM (inactive) | GI50 (SK-MEL-2): 92.3 µM (inactive) | GI50 (SN12C): 96.2 µM (inactive) | GI50 (RXF 393): 36.6 µM (inactive) | GI50 (NCI-H23): 62.4 µM (inactive) | GI50 (SF-268): 67 µM (inactive) | GI50 (EKVX): > 100 µM (inactive) | GI50 (DU-145): 86.3 µM (inactive) | GI50 (HCC 2998): 50.8 µM (inactive) | GI50 (MCF7): 29.5 µM (inactive) | GI50 (CAKI-1): 11.3 µM (inactive) | GI50 (NCI-H460): 36.6 µM (inactive) | GI50 (A549): 33.9 µM (inactive) | GI50 (ACHN): 25.5 µM (inactive) | GI50 (CCRF-CEM): 19.2 µM (inactive) | GI50 (MDA-MB-231): 45.8 µM (inactive) | GI50 (SNB-19): 60 µM (inactive) | GI50 (NCI-H522): 0.665 µM (active) | GI50 (SW-620): 53.5 µM (inactive) | GI50 (MDA-MB-435): 35.9 µM (inactive) | GI50 (SNB-75): 33.5 µM (inactive) | GI50 (OVCAR-5): > 100 µM (inactive) | GI50 (IGROV-1): 38.7 µM (inactive) | GI50 (HOP-62): > 100 µM (inactive) | GI50 (U-251): 48.4 µM (inactive) | GI50 (Malme-3M): > 100 µM (inactive) | GI50 (OVCAR-3): 52 µM (inactive) | GI50 (LOX IMVI): 41.4 µM (inactive) | GI50 (BT-549): 58.5 µM (inactive) | GI50 (HCT-15): 35.8 µM | GI50 (SF-295): 52.8 µM (inactive) | GI50 (T47D): 56.8 µM (inactive) | GI50 (Hs-578T): 61.7 µM (inactive) | GI50 (786-0): 43.8 µM (inactive) | GI50 (OVCAR-8): 47.5 µM (inactive) | GI50 (SK-OV-3): > 100 µM (inactive) | GI50 (A498): 26.8 µM (inactive)

COP(=O)(OC)[C@@](O)(c1ccccc1)[C@@H](O)[C@H](O)c1ccccc1
GI50 (KM12): > 100 µM (inactive) | GI50 (M14): > 100 µM (inactive) | GI50 (UACC-257): > 100 µM (inactive) | GI50 (TK-10): > 100 µM (inactive) | GI50 (PC-3): > 100 µM (inactive) | GI50 (OVCAR-4): > 100 µM (inactive) | GI50 (SR): > 100 µM (inactive) | GI50 (HL-60): > 100 µM (inactive) | GI50 (NCI/ADR-RES): > 100 µM (inactive) | GI50 (HOP-92): > 100 µM (inactive) | GI50 (NCI-H226): > 100 µM (inactive) | GI50 (UACC-62): > 100 µM (inactive) | GI50 (UO-31): > 100 µM (inactive) | GI50 (SF-539): 38.4 µM (inactive) | GI50 (SK-MEL-5): > 100 µM (inactive) | GI50 (HT-29): > 100 µM (inactive) | GI50 (HCT-116): 36 µM (inactive) | GI50 (SK-MEL-28): > 100 µM (inactive) | GI50 (MDA-N): > 100 µM (inactive) | GI50 (SK-MEL-2): > 100 µM (inactive) | GI50 (SN12C): > 100 µM (inactive) | GI50 (RXF 393): > 100 µM (inactive) | GI50 (NCI-H23): > 100 µM (inactive) | GI50 (SF-268): > 100 µM (inactive) | GI50 (EKVX): > 100 µM (inactive) | GI50 (DU-145): > 100 µM (inactive) | GI50 (COLO 205): > 100 µM (inactive) | GI50 (MCF7): 22.5 µM (inactive) | GI50 (CAKI-1): > 100 µM (inactive) | GI50 (NCI-H460): > 100 µM (inactive) | GI50 (A549): > 100 µM (inactive) | GI50 (ACHN): > 100 µM (inactive) | GI50 (CCRF-CEM): 18.3 µM (inactive) | GI50 (MDA-MB-231): > 100 µM (inactive) | GI50 (SNB-19): > 100 µM (inactive) | GI50 (MOLT-4): > 100 µM (inactive) | GI50 (NCI-H522): > 100 µM (inactive) | GI50 (SW-620): 42.2 µM (inactive) | GI50 (MDA-MB-435): > 100 µM (inactive) | GI50 (SNB-75): > 100 µM (inactive) | GI50 (OVCAR-5): > 100 µM (inactive) | GI50 (IGROV-1): > 100 µM (inactive) | GI50 (U-251): > 100 µM (inactive) | GI50 (Malme-3M): > 100 µM (inactive) | GI50 (OVCAR-3): > 100 µM (inactive) | GI50 (LOX IMVI): 21.1 µM (inactive) | GI50 (BT-549): > 100 µM (inactive) | GI50 (HCT-15): > 100 µM | GI50 (SF-295): > 100 µM (inactive) | GI50 (T47D): > 100 µM (inactive) | GI50 (Hs-578T): > 100 µM (inactive) | GI50 (K562): 60.1 µM (inactive) | GI50 (786-0): 98.6 µM (inactive) | GI50 (OVCAR-8): > 100 µM (inactive) | GI50 (SK-OV-3): > 100 µM (inactive) | GI50 (A498): > 100 µM (inactive)
